These results are taken from article PMC5775417 (Scientific Reports, 2018).

Structures are written as SMILES. Values joined by “and” are separate entries in the source; they are usually repeats but may differ in a detail not shown here. Identical values can stand only once. “Also recorded” adds a separate entry of the source. Like-named read-outs stand apart in the source and are kept apart here. A value given as a limit tells only on which side of the number the result lay.

The target of one test is T1, D80^2.50A c-myc-D2LR (Homo sapiens, UniProt P14416, D80A).
T1 construct: expressed in transfected cells
The test can be described thus: [3H]spiperone competition binding, membranes of Flp-In CHO cells. The note with it: for Ki / logα (logarithm of the cooperativity factor between the modulator and [3H]spiperone) / α (cooperativity factor with [3H]spiperone) / Kb: D80A; for Ki: 100 µM GppNHp; for Kb: allosteric ternary complex model. How it is done:
(§1) Flp-In CHO cells (Invitrogen) were transfected with the pOG44 vector encoding Flp recombinase and the pDEST vector encoding the wild-type or mutant c-Myc-D2LR at a ratio of 9:1 using polyethylenimine (Polysciences, Warrington, PA) as transfection reagent. 24 hours after transfection the cells were subcultured and the medium was supplemented with 700 μg/ml hygromycin B as selection agent to obtain cells stably expressing the c-Myc-D2LR. FlpIn CHO cells stably expressing the wild-type or mutant c-Myc-D2LR were grown in Dulbecco’s modified Eagle’s medium (DMEM) supplemented with 10% fetal bovine serum and 200 µg/mL of Hygromycin-B, and maintained at 37 °C in a humidified incubator containing 5% CO2. When cells were approximately 90% confluent, they were harvested and centrifuged (300 g, 3 min, 4 °C). The resulting pellet was resuspended in assay buffer either in the presence (20 mM HEPES, 100 mM NaCl, 6 mM MgCl2, 1 mM EGTA, and 1 mM EDTA, pH 7.4) or absence (20 mM HEPES, 100 mM NMDG, 6 mM MgCl2, 1 mM EGTA, and 1 mM EDTA, pH 7.4) of sodium ions. The centrifugation procedure was repeated. The intact cell pellet was then resuspended in assay buffer and homogenized using a Polytron homogenizer for three 10 s intervals on the maximum setting, with 30 s periods on ice between each burst. The homogenate volume was brought up to 30 mL, the sample was centrifuged (350 g, 5 min, 4 °C), the pellet was discarded, and the supernatant was centrifuged at 30 000 g for 1 hr at 4 °C. The resulting pellet was resuspended in 5 mL of assay buffer, and the protein content was determined using the bicinchoninic acid assay (BCA assay). The homogenate was then separated into 500 µl aliquots and stored at −80 °C until it was required for binding assays.
(§2) Binding was terminated by fast-flow filtration over GF/B membranes using a Brandel harvester followed by three washes with ice-cold 0.9% NaCl. Bound radioactivity was measured in a Tri-Carb 2900TR liquid scintillation counter (PerkinElmer).
(§3) Values of α > 1 denote positive cooperativity, values < 1 (but > 0) denote negative cooperativity and values = 1 denote neutral cooperativity.
(§4) IC50 values obtained from the inhibition curves were converted to Ki values using the Cheng and Prusoff equation[35].

Another test has as its target T2, E95^2.65A c-myc-D2LR (Homo sapiens, UniProt P14416, E95A).
T2 construct: expressed in transfected cells
The test is described as above. The note with it: for fold decrease in affinity at E95A mutant in the absence of Na+ vs E95A in the presence of Na+: 100 mM NMDG vs 100 mM NaCl; for Ki / logα (logarithm of the cooperativity factor between the modulator and [3H]spiperone) / α (cooperativity factor with [3H]spiperone) / Kb: E95A; for Ki: 100 µM GppNHp; for Kb: allosteric ternary complex model. How it is done:
as §1, §2, §3, §4

The next test has as its target T3, WT c-myc-D2LR (Homo sapiens, UniProt P14416).
T3 construct: expressed in transfected cells
The test is described as above. As to conditions: for fold loss in affinity in the absence of Na+ vs presence of Na+: WT D2LR, 100 mM NMDG vs 100 mM NaCl; for Ki / Kb / logα (logarithm of the cooperativity factor between the modulator and [3H]spiperone) / α (cooperativity factor with [3H]spiperone): WT. As for the experimental part:
as §1, §2, §3, §4

The test system of test [1] is D2R Tyr^7.43 to cysteine mutant. As to conditions: cited from earlier work.
Setting [2] is: 100 mM NaCl, 0.15 nM [3H]spiperone, read-out: Ki (converted).
The mark [3] stands for this setting: 100 mM NaCl, 0.15 nM [3H]spiperone, read-out: pKi (converted).
Where [4] appears, read: 100 mM NMDG (no Na+), 0.15 nM [3H]spiperone, read-out: Ki (converted).
Where [5] appears, read: 100 mM NMDG (no Na+), 0.15 nM [3H]spiperone, 100 µM GppNHp, read-out: pKi (converted).
[6] abbreviates: 100 mM NaCl, 0.15 nM [3H]spiperone, 100 µM GppNHp, read-out: pKi (converted).
The mark [7] stands for this setting: 100 mM NaCl, 0.5 nM [3H]spiperone.
Setting [8] is: 100 mM NMDG (no Na+), 0.5 nM [3H]spiperone.
The mark [9] stands for this setting: 100 mM NMDG (no Na+), 0.15 nM [3H]spiperone.
[10] abbreviates: 100 mM NaCl, 0.15 nM [3H]spiperone.
Setting [11] is: 100 mM NMDG (no Na+), 0.15 nM [3H]spiperone, ND = no inhibition of [3H]spiperone binding detected.

T1 sequence (P14416 whole entry D80A): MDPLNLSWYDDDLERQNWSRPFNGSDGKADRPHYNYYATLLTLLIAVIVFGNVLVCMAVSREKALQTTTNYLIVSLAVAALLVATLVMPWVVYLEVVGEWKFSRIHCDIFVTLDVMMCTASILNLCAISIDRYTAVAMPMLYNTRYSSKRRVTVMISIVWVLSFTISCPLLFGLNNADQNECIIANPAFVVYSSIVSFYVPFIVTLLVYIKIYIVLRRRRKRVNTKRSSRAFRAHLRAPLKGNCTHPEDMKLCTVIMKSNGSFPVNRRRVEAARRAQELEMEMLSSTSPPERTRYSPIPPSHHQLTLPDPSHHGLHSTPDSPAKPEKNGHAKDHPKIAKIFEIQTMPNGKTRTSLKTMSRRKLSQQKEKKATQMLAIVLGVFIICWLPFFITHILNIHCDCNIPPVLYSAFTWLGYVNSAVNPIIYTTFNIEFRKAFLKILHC
T2 sequence (P14416 whole entry E95A): as the sequence (P14416 whole entry D80A) above, with A80D, E95A counted along it
T3 sequence (P14416 whole entry): as the sequence (P14416 whole entry D80A) above, with A80D counted along it

As to `CC(=O)N[C@H]1CC[C@H](CCN2CCc3ccc(C#N)cc3C2)CC1` [MIPS1059, N-((trans)-4-(2-(7-cyano-3,4-dihydroisoquinolin-2(1H)yl)ethyl)cyclohexyl)acetamide], at D80^2.50A c-myc-D2LR (100 mM NaCl), the “fold loss in affinity at D80A mutant vs WT” value is 5 fold. The Ki at D80^2.50A c-myc-D2LR (100 mM NMDG (no Na+), 0.15 nM [3H]spiperone, read-out: pKi (converted)) was 1480 nM; on D80^2.50A c-myc-D2LR (setting [2]) it was 1500 nM; at D80^2.50A c-myc-D2LR (setting [3]), 1510 nM; on E95^2.65A c-myc-D2LR (setting [4]), 4800 nM; on E95^2.65A c-myc-D2LR (setting [2]), 1200 nM; at E95^2.65A c-myc-D2LR (setting [3]), 1150 nM. The Ki is 1740 nM on WT c-myc-D2LR (setting [5]); 275 nM at WT c-myc-D2LR (setting [6]); 275 nM at WT c-myc-D2LR (100 mM NaCl, complete displacement of [3H]spiperone, read-out: Ki). Further, the “fold by which the WT vs E95A difference in affinity is greater in the presence of Na+ than in the absence of Na+” value (“fold by which the WT vs E95A difference” below) on E95^2.65A c-myc-D2LR is recorded as 2 fold. On E95^2.65A c-myc-D2LR, the “fold decrease in affinity at E95A mutant in the absence of Na+ vs E95A in the presence of Na+” value (“fold decrease in affinity at E95A mutant” for short) worked out at 5 fold. Also, the results for the “fold loss in affinity at E95A mutant vs WT” value at E95^2.65A c-myc-D2LR (absence of Na+ (100 mM NMDG)) and at E95^2.65A c-myc-D2LR (presence of Na+ (100 mM NaCl)) were 3 fold and 5 fold, respectively. At WT c-myc-D2LR, the “fold loss in affinity in the absence of Na+ vs presence of Na+” value (shortened to “fold loss in affinity in the absence”) is recorded as 6 fold.

Regarding `CCCN1CCc2ccc(C#N)cc2C1` [MIPS1071, 2-propyl-1,2,3,4-tetrahydroisoquinoline-7-carbonitrile], the “fold loss in affinity at D80A mutant vs WT” value on D80^2.50A c-myc-D2LR (100 mM NaCl) is 7 fold. Further, the Ki was 7200 nM at D80^2.50A c-myc-D2LR (setting [4]); 9300 nM on D80^2.50A c-myc-D2LR (setting [2]); 7600 nM at E95^2.65A c-myc-D2LR (setting [4]); 1260 nM at E95^2.65A c-myc-D2LR (setting [3]); 12000 nM at WT c-myc-D2LR (setting [5]); 1260 nM on WT c-myc-D2LR (setting [6]). For the same molecule, the “fold loss in affinity at E95A mutant vs WT” value at E95^2.65A c-myc-D2LR (absence of Na+ (100 mM NMDG)) and on E95^2.65A c-myc-D2LR (presence of Na+ (100 mM NaCl)) was “not changed” in each case. In addition, at WT c-myc-D2LR, the “fold loss in affinity in the absence” value is listed as 9 fold.

`N#Cc1ccc2c(c1)CN(CC[C@H]1CC[C@H](NC(=O)c3cc4ccncc4[nH]3)CC1)CC2` [MIPS1726]: the “fold loss in affinity at D80A mutant vs WT” value at D80^2.50A c-myc-D2LR (100 mM NaCl) is over 10 fold. Moreover, the “logα (logarithm of the cooperativity factor between the modulator and [3H]spiperone)” value is reported as −2.13 ± 0.27 at D80^2.50A c-myc-D2LR (setting [7]); −1.89 ± 0.31 on E95^2.65A c-myc-D2LR (setting [8]); −1.91 ± 0.12 on E95^2.65A c-myc-D2LR (setting [7]); −2.26 ± 0.39 on WT c-myc-D2LR (setting [8]); −1.90 ± 0.08 at WT c-myc-D2LR (setting [7]). In addition, the “α (cooperativity factor with [3H]spiperone)” value at D80^2.50A c-myc-D2LR (setting [7]) stood at 0.007; at E95^2.65A c-myc-D2LR (setting [8]), 0.01; at E95^2.65A c-myc-D2LR (setting [7]) it was 0.01; on WT c-myc-D2LR (setting [8]), 0.005; on WT c-myc-D2LR (setting [7]), 0.01. Also, the Kb on D80^2.50A c-myc-D2LR (setting [7]) was 316 nM; at E95^2.65A c-myc-D2LR (setting [8]), 812 nM; at E95^2.65A c-myc-D2LR (setting [7]), 123 nM; at WT c-myc-D2LR (0.15 nM [3H]spiperone, radioligand completely displaced, read-out: pKB (converted)) it was 9.77 nM; at WT c-myc-D2LR (100 mM NMDG (no Na+), allosteric ternary complex model, 0.5 nM [3H]spiperone, read-out: KB (converted)), 398 nM; on WT c-myc-D2LR (100 mM NaCl, allosteric ternary complex model, 0.5 nM [3H]spiperone, read-out: KB (converted)), 30 nM and 30.2 nM. Besides, at E95^2.65A c-myc-D2LR, the “fold by which the WT vs E95A difference” value is on record as 2 fold. For the same molecule, the “fold decrease in affinity at E95A mutant” value on E95^2.65A c-myc-D2LR is 7 fold. The “fold loss in affinity at E95A mutant vs WT” value at E95^2.65A c-myc-D2LR (absence of Na+ (100 mM NMDG)) was 2 fold; on E95^2.65A c-myc-D2LR (presence of Na+ (100 mM NaCl)) it was 4 fold.

Take `N#Cc1ccc2c(c1)CN(CC[C@H]1CC[C@H](NC(=O)c3cc4cccc(F)c4[nH]3)CC1)CC2` [MIPS1868]: the “fold loss in affinity at D80A mutant vs WT” value at D80^2.50A c-myc-D2LR (100 mM NaCl) was found to be 6 fold. For the same molecule, the “logα (logarithm of the cooperativity factor between the modulator and [3H]spiperone)” value on D80^2.50A c-myc-D2LR (setting [9]) is −0.87 ± 0.12; on D80^2.50A c-myc-D2LR (100 mM NaCl, 0.15 nM [3H]spiperone, ND = no inhibition of [3H]spiperone binding detected), −0.62 ± 0.06; at E95^2.65A c-myc-D2LR (setting [11]) it was −1.24 ± 0.16; at E95^2.65A c-myc-D2LR (setting [10]), −1.39 ± 0.11; at WT c-myc-D2LR (setting [11]) it was −1.48 ± 0.12; at WT c-myc-D2LR (setting [10]), −1.45 ± 0.12. Besides, the “α (cooperativity factor with [3H]spiperone)” value at D80^2.50A c-myc-D2LR (setting [9]) amounted to 0.13; at D80^2.50A c-myc-D2LR (setting [10]), 0.23; on E95^2.65A c-myc-D2LR (setting [9]) it was 0.06; at E95^2.65A c-myc-D2LR (setting [10]), 0.04; at WT c-myc-D2LR (setting [9]), 0.03; on WT c-myc-D2LR (setting [10]), 0.04. For the same molecule, the Kb was 468 nM on D80^2.50A c-myc-D2LR (setting [9]); 631 nM on D80^2.50A c-myc-D2LR (setting [10]); 617 nM at E95^2.65A c-myc-D2LR (setting [9]); 212 nM at E95^2.65A c-myc-D2LR (setting [10]); 631 nM on WT c-myc-D2LR (100 mM NMDG (no Na+), allosteric ternary complex model, 0.15 nM [3H]spiperone, read-out: KB (converted)); 100 nM on WT c-myc-D2LR (100 mM NaCl, allosteric ternary complex model, 0.15 nM [3H]spiperone, read-out: KB (converted)). For the same molecule, the “fold loss of negative cooperativity at D80A mutant vs WT” value at D80^2.50A c-myc-D2LR (cooperativity with [3H]spiperone) is 4 fold and 6 fold. In addition, the “fold by which the WT vs E95A difference” value at E95^2.65A c-myc-D2LR is given as 2 fold. On E95^2.65A c-myc-D2LR, the “fold decrease in affinity at E95A mutant” value is reported as 3 fold. The “fold loss in affinity at E95A mutant vs WT” value at E95^2.65A c-myc-D2LR (absence of Na+ (100 mM NMDG)) was “no significant difference; also recorded: no additional effect”; at E95^2.65A c-myc-D2LR (presence of Na+ (100 mM NaCl)), 2 fold. For the same molecule, the “fold loss in affinity in the absence” value on WT c-myc-D2LR was 6 fold and 5 fold.

For `CN1CN(c2ccccc2)C2(CCN(CCCC(=O)c3ccc(F)cc3)CC2)C1=O` [N-methyl-spiperone], the “fold decrease in affinity upon mutation of Tyr^7.43 to cysteine” value in test [1] was 3 fold.

Turning to `CCN1CCCC1CNC(=O)c1cc(S(N)(=O)=O)ccc1OC` (stereo not shown) [sulpiride], the “fold decrease in affinity upon mutation of Tyr^7.43 to cysteine” value in test [1] is on record as 185 fold.
